Measurements as given in PMC4922569, “Antifibrotic Effects of the Dual CCR2/CCR5 Antagonist Cenicriviroc in Animal Models of Liver and Kidney Fibrosis” (PLoS ONE, 2016).
Counter-ions that a name gives are not always drawn. Like-named read-outs stand apart in the source and are kept apart here.

Legend:
[1] = test system: UUO-induced renal fibrosis; assay: Mouse model of UUO-induced renal fibrosis; assay type: in vivo; settings: for Reduction of UUO-induced increase in Collagen Volume Fraction (±SEM) vs UUO control: p < 0.05
Protocol: Unilateral ureter obstruction is a commonly used experimental model of kidney injury, in which interstitial inflammation, tubular cell injury/death and fibrosis, ensue. The protocol was approved by Plato BioPharma, Inc. IACUC (PBI; approval number 2013–04). The care and use of animals was conducted in accordance with the NIH Guide for the Care and Use of Laboratory Animals (2010), […] Guidelines on Euthanasia (2007), Office of Laboratory Animal Welfare Institutional Animal Care and Use Committee Guidebook (2002), Public Health Service Policy on Humane Care and Use of Laboratory Animals (2002), PBI standard operating procedures on a) moribund sacrifice, b) vivarium maintenance and animal care, and c) animal handling and dosing. Anesthesia was performed by isoflurane […]; animals were euthanized by diaphragm laceration followed by heart laceration while under isoflurane anesthesia.
(§1) Male CD-1 mice (n = 51; 7–8 weeks of age; Charles River Laboratories, USA) were allocated to weight-matched treatment groups on Day -1 (1 day prior to either sham [one group] or permanent right UUO surgery [five groups] via aseptic laparotomy). From Days -1 to 4, mice received phosphate-buffered saline (PBS) IP QD, apart from a positive-control group, which received 1D11 (anti-TGF-beta1 antibody) 3 mg/kg IP QD. From Days 0 to 5, mice received vehicle control (sham surgery, UUO-control and UUO+positive-control groups) or CVC 7 mg/kg/day (CVC7), CVC20 or CVC100 PO BID (S1 Table). The CVC100 group was terminated due to poor clinical condition (6/9 animals died and 3/9 euthanized prior to end of study). […]
In the UUO model, ten images/depth/kidney were assessed in a blinded fashion using Axio Imager.A2 (Zeiss, USA) light microscopy (at 200x magnification to enable 60–70% sampling of renal cortical area) and quantified by a composite Collagen Volume Fraction (CVF [% total area imaged]) score expressed as the average positive stain across three anatomically distinct ([…] apart) tissue sections, or depths, from the obstructed kidney.
In the UUO model, frozen renal cortical tissue biopsies were hydrolyzed and centrifuged, and the supernatant was analyzed by OD absorbance at 560 nm on a SpectraMax® 190 (Molecular Devices, USA). Standard curves for conversion of ODs to concentrations were generated using linear regression and sample concentrations were determined using SoftMax® Pro5 software (Molecular Devices, USA).
In the UUO model, mRNA expression levels in renal cortical tissue were evaluated using the QuantiGene® Plex 2.0 profiling platform (Affymetrix, USA). […]
In the UUO model, data are expressed as mean ±SEM. […]

CCR2 = settings: cited from earlier work
[2] = test system: APAP-induced liver injury; settings: cited from earlier work
[3] = CVC plasma levels in the UUO model (LC/MS/MS); assay type: in vivo; settings: n = 8, ~4 hours post-dose (approximate Cmax), Day 5
Protocol: as §1, with “study). Of note, a similar dose of CVC100 administered for 3 weeks was well tolerated in the mouse NASH model; therefore, it is plausible that the laparotomy and UUO surgery in combination with CVC may have contributed to the loss of animals.” for “study).”
CVC plasma levels (minimum and maximum) were determined by KCAS Bioanalytical Services, USA, using a validated liquid chromatography-tandem mass spectrometry (LC/MS/MS) plasma method (50 μL assay, range 10.0−1920.0 ng/mL).

[4] = in rats; cited from earlier work
[5] = in mice; cited from earlier work
[6] = acute APAP-induced liver injury

For `CCCCOCCOc1ccc(-c2ccc3c(c2)/C=C(/C(=O)Nc2ccc([S@@+]([O-])Cc4cncn4CCC)cc2)CCCN3CC(C)C)cc1` [CVC, cenicriviroc mesylate], the “Effect on UUO-induced increase in obstructed kidney hydroxyproline content” value ([1]; CVC7, CVC20 PO BID) was “did not affect”, the “Reduction of UUO-induced increase in Collagen Volume Fraction (±SEM) vs UUO control” value ([1]; CVC7 PO BID Days 0-5) was 28.6%±8.8 and the “Inhibition of UUO-induced increases in obstructed renal cortical mRNA expression of fibrogenic genes” value ([1]; CVC7 and CVC20, trend, relative to UUO control) was “did not reach statistical significance”. The “Reduction of UUO-induced increase in Collagen Volume Fraction (±SEM) vs UUO control” value ([1]; CVC20 PO BID Days 0-5, single outlier removed) was 31.8%±6.8, the “Occupancy for CCR2 (blood and spleen) in proinflammatory monocytes” value (CCR2; CVC 250 nM, murine cryopreserved PBMC ex vivo) was > 90% and the CCR2 occupancy (CCR2; CVC concentrations of 250 nmol/L or higher, mouse monocytes and macrophages ex vivo) was > 87%. The “Infiltration of Ly6Chi monocyte-derived macrophages into the liver” value ([2]; APAP model, preliminary data) was “significantly decreased”, the “ALT levels relative to vehicle control” value [2, 6] was “significant reduction” and the “Necrotic area relative to vehicle control” value [2, 6] was “significant reduction”. The “CVC concentration (mean±SD), plasma” value ([3]; CVC7 BID) was 251 ± 364 ng/mL, the “CVC concentration (mean±SD), plasma” value ([3]; CVC20 BID) was 971 ± 507 ng/mL and the Half-life [4] was 4 to 5 h. For the same compound, the Half-life [5] was ~ 2 hours.
